pEC50: −log10 of the molar value. Where two headings read alike, the source gives them in different places.
Test system: SARS-CoV-2 VOCs
Experiment: microbe, parasite or virus in culture
Format: cell-based
[1] = Severe acute respiratory syndrome coronavirus 2, read-out: EC50, dsRNA staining
[2] = Severe acute respiratory syndrome coronavirus 2, read-out: EC50, nucleocapsid staining

Compound	pEC50 [1]	pEC50 [2]	pEC50 (Severe acute respiratory syndrome coronavirus 2, Calu-3)
CN(C)c1ccc(N(Cc2cc(Cl)cs2)C(=O)Cc2cncc3ccccc23)cc1 [C5, N-((4-chlorothiophen-2-yl)methyl)-N-(4-(dimethylamino)phenyl)-2-(isoquinolin-4-yl)acetamide]	6.15 to 6.70	6.52 to 7.00	
CN(C)c1ccc(N(Cc2cc(Cl)cs2)C(=O)Cc2cncc3cccc(O)c23)cc1 [C5a, N-((4-chlorothiophen-2-yl)methyl)-N-(4-(dimethylamino)phenyl)-2-(5-hydroxyisoquinolin-4-yl)acetamide]	7.02 to 7.55	7.16 to 7.52	
CC(C)(C)[C@H](NC(=O)C(F)(F)F)C(=O)N1C[C@H]2[C@@H]([C@H]1C(=O)N[C@H](C#N)C[C@@H]1CCNC1=O)C2(C)C [C7, Nirmatrelvir, reference compound]	6.15 to 6.40	6.40 to 6.52	5.89

— article PMC10453993 (Emerging Microbes & Infections, 2023)
